# Like-named read-outs stand apart in the source and are kept apart here. Starred links: 1 amine or outer side, 2 acyl side, 3 side chain; linkers in the order of their positions; H or OH if unused. Positions of bridges follow the written chain, without caps; N, C: chain ends. Non-standard residues stand in square brackets, D forms with d. Residues, ends and D or L forms follow the SMILES beside them. *: point of attachment. Tyr(3-F) = N[C@@H](Cc1ccc(O)c(F)c1)C(=O)O; NMeF = CN[C@@H](Cc1ccccc1)C(=O)O; NMeGABA = CN(CCCC(=O)[*:2])[*:1]; NMeI = CC[C@H](C)[C@H](NC)C(=O)O; NMeβAla = CN(CCC(=O)[*:2])[*:1]; NMeL = CN[C@@H](CC(C)C)C(=O)O; NMeV = CN[C@H](C(=O)O)C(C)C; NMeA = CN[C@@H](C)C(=O)O; Piperidide = C1CCN(*)CC1; dNMeA = CN[C@H](C)C(=O)O; NPrGly = CCCNCC(=O)O; Sar = CNCC(=O)O; tBu = CC(C)(C)*
# Experiments:
# [1] = Metabolic stability in human hepatic microsome; format: in vitro ADME; settings: microsomes
# [2] = PAMPA (parallel artificial membrane permeability assay); format: in vitro ADME; settings: PAMPA
# Outline: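 Artificial membrane was 10% (w/v) egg lecithin plus 0.5% (w/v) cholesterol in dodecane on a PVDF filter. A 10 mM DMSO stock was added at 0.5% (v/v) to donor buffer (50 mM MOPSO, pH 6.5, 5.0% glycocholic acid). After 18 h at 37 °C, LC/MS or LC/UV gave donor and acceptor levels for Pe.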
# [3] = pH 7.4, human hepatic microsome, NADPH(+), read-out: CL NADPH(+)
# [4] = membrane permeation rate (Pe), 50 mM MOPSO buffer pH 6.5 with 5.0% glycocholic acid, 37° C., 18 hours, read-out: iPAMPA Pe
Structure (SMILES),"microsomal CLint at 1 uM [1, 3] [µL/min/mg]","Papp at 18 hours, 50 µM [2, 4] [×10⁻⁶ cm/s]","microsomal CLint at 1 uM ([1]; human, pH 7.4, CL NADPH(+)) [µL/min/mg]","Papp at 18 hours, 50 µM ([2]; pH 6.5) [×10⁻⁶ cm/s]"
CC[C@H](C)[C@@H]1NC(=O)[C@H](CC(C)C)N(C)C(=O)CN(C)C(=O)[C@H]([C@@H](C)O)NC(=O)[C@H](Cc2ccccc2)N(C)C(=O)[C@H](CC(C)C)N(C)C(=O)[C@H](C)N(C)C(=O)C[C@@H](C(=O)N2CCCCC2)NC(=O)[C@H](CC(C)C)N(C)C1=O [DP-342] ([NMeA][NMeL][NMeF]T[Sar][NMeL]I[NMeL]D-Piperidide; lactam N-9),121,33,,
CC[C@H](C)[C@H]1C(=O)N(C)[C@@H](Cc2ccccc2)C(=O)N[C@@H](CC(C)C)C(=O)N[C@H](C(=O)N2CCCCC2)CC(=O)N(C)CCCC(=O)N(C)[C@@H](CC(C)C)C(=O)N[C@@H]([C@@H](C)O)C(=O)N(C)[C@@H](Cc2ccccc2)C(=O)N(C)[C@@H](CC(C)C)C(=O)N(C)[C@@H](CC(C)C)C(=O)N[C@@H](C)C(=O)N1C [DP-248] ([NMeGABA][NMeL]T[NMeF][NMeL][NMeL]A[NMeI][NMeF]LD-Piperidide; lactam N-11),36,2.6,,
CC[C@H](C)[C@H]1C(=O)N(C)[C@@H](CC(C)C)C(=O)N(C)[C@@H](Cc2ccccc2)C(=O)N[C@@H]([C@@H](C)O)C(=O)N(C)[C@@H](Cc2ccccc2)C(=O)N(C)[C@@H](CC(C)C)C(=O)N(C)[C@@H](CC(C)C)C(=O)N[C@H](C(=O)N2CCCCC2)CC(=O)N[C@H](C(C)C)C(=O)N[C@@H](C)C(=O)N1C [DP-256] ([dV]A[NMeI][NMeL][NMeF]T[NMeF][NMeL][NMeL]D-Piperidide; lactam N-10),44,19,,
CC(C)C[C@@H]1NC(=O)[C@H](CC(C)C)N(C)C(=O)[C@H](C)N(C)C(=O)[C@@H](C(C)C)NC(=O)C[C@@H](C(=O)N2CCCCC2)NC(=O)[C@H]([C@@H](C)O)NC(=O)[C@H](C)N(C)C(=O)[C@H](C)N(C)C(=O)[C@H](CC(C)C)N(C)C(=O)[C@H](Cc2ccc(O)c(F)c2)NC(=O)[C@H](Cc2ccccc2)N(C)C1=O [DP-619] ([dV][NMeA][NMeL]L[NMeF][Tyr(3-F)][NMeL][NMeA][NMeA]TD-Piperidide; lactam N-11),29,12,,
CC[C@H](C)[C@H]1C(=O)N(C)[C@@H](Cc2ccccc2)C(=O)N(C)[C@@H](CC(C)C)C(=O)N[C@H](C(=O)N2CCCCC2)CC(=O)N(C)[C@H](C)C(=O)N(C)[C@@H](CC(C)C)C(=O)N[C@@H]([C@@H](C)O)C(=O)N(C)[C@@H](C)C(=O)N[C@@H](C)C(=O)N(C)[C@@H](Cc2ccccc2)C(=O)N[C@@H](CC(C)C)C(=O)N1C [DP-244] ([dNMeA][NMeL]T[NMeA]A[NMeF]L[NMeI][NMeF][NMeL]D-Piperidide; lactam N-11),16,31,,
CC[C@H](C)[C@H]1C(=O)N[C@@H](C)C(=O)N(C)[C@@H](CC(C)C)C(=O)N(C)[C@@H](Cc2ccccc2)C(=O)N[C@@H]([C@@H](C)O)C(=O)N(C)[C@@H](C)C(=O)N(C)[C@@H](CC(C)C)C(=O)N(C)[C@@H](Cc2ccccc2)C(=O)N[C@H](C(=O)N(C)[C@@H](Cc2ccccc2)C(=O)N[C@@H](C)C(=O)N2CCCCC2)CC(=O)N(C)CC(=O)N(C)[C@@H](CC(C)C)C(=O)N1C [DP-284] ([Sar][NMeL][NMeI]A[NMeL][NMeF]T[NMeA][NMeL][NMeF]D[NMeF]A-Piperidide; lactam N-11),,,11,0.21
CC(C)C[C@@H]1NC(=O)[C@H](CC(C)C)N(C)C(=O)C[C@@H](C(=O)N2CCCCC2)NC(=O)[C@H](C)N(C)C(=O)[C@H](CC(C)C)N(C)C(=O)[C@H]([C@@H](C)O)NC(=O)[C@H](Cc2ccccc2)N(C)C1=O [DP-738] ([NMeL]L[NMeF]T[NMeL][NMeA]D-Piperidide; lactam N-7),221,22,,
CC[C@H](C)[C@H]1C(=O)N(C)[C@@H](CC(C)C)C(=O)N[C@@H]([C@@H](C)O)C(=O)N[C@H](C(=O)N2CCCCC2)CC(=O)N[C@H](C(C)C)C(=O)N(C)[C@@H](C)C(=O)N(C)[C@@H](CC(C)C)C(=O)N(C)[C@@H](Cc2ccccc2)C(=O)N[C@@H](C)C(=O)N(C)[C@@H](CC(C)C)C(=O)N(C)[C@@H](Cc2ccccc2)C(=O)N1C [DP-234] ([dV][NMeA][NMeL][NMeF]A[NMeL][NMeF][NMeI][NMeL]TD-Piperidide; lactam N-11),91,2,,
CC[C@H](C)[C@@H]1NC(=O)[C@H](CC(C)C)NC(=O)[C@@H](C)N(C)C(=O)C[C@@H](C(=O)N2CCCCC2)NC(=O)[C@H](C(C)C)N(C)C(=O)[C@H](CC(C)C)NC(=O)[C@H](Cc2ccccc2)NC(=O)[C@H]([C@@H](C)O)NC(=O)[C@H](CC(C)C)NC(=O)CN(C)C(=O)[C@H](C)NC1=O [DP-475] ([dNMeA]LIA[Sar]LTFL[NMeV]D-Piperidide; lactam N-11),35,16,,
CC(C)C[C@H]1C(=O)N[C@H](C(=O)N(C)[C@@H](Cc2ccccc2)C(=O)N[C@@H](C)C(=O)N2CCCCC2)CC(=O)N(C)CCC(=O)N(C)[C@@H](C)C(=O)N[C@@H](C(C)C)C(=O)N(C)[C@@H](C(C)C)C(=O)N(C)[C@@H](Cc2ccccc2)C(=O)N(C)CC(=O)N[C@@H]([C@@H](C)O)C(=O)N(C)[C@@H](C)C(=O)N1C [DP-449] ([NMeβAla][NMeA]V[NMeV][NMeF][Sar]T[NMeA][NMeL]D[NMeF]A-Piperidide; lactam N-10),6,6,,
CC(C)C[C@H]1C(=O)N[C@H](C(=O)N2CCCCC2)CC(=O)N[C@H](C)C(=O)N(C)[C@@H](Cc2ccccc2)C(=O)N(C)[C@@H](CC(C)C)C(=O)N[C@@H]([C@@H](C)O)C(=O)N(C)[C@@H](C)C(=O)N[C@@H](COC(C)(C)C)C(=O)N1C [DP-708] ([dA][NMeF][NMeL]T[NMeA]S(tBu)[NMeL]D-Piperidide; lactam N-8),35,16,,
CC[C@H](C)[C@@H]1NC(=O)[C@H](CC(C)C)N(C)C(=O)[C@H](Cc2ccccc2)N(C)C(=O)CN(C)C(=O)[C@H](C)N(C)C(=O)[C@H](Cc2ccccc2)N(C)C(=O)[C@H](C)N(C)C(=O)[C@H]([C@@H](C)O)NC(=O)[C@H](C(C)C)N(C)C(=O)CCN(C)C(=O)C[C@@H](C(=O)N2CCCCC2)NC1=O [DP-516] ([NMeβAla][NMeV]T[NMeA][NMeF][NMeA][Sar][NMeF][NMeL]ID-Piperidide; lactam N-11),19,9.1,,
CCCN1CC(=O)N(C)[C@@H](Cc2ccccc2)C(=O)N[C@@H](C)C(=O)N(C)[C@@H](Cc2ccccc2)C(=O)N(C)[C@@H](CC(C)C)C(=O)N(C)[C@@H]([C@@H](C)CC)C(=O)N(C)[C@@H](CC(C)C)C(=O)N[C@H](C(=O)N2CCCCC2)CC(=O)N(C)CC(=O)N[C@@H](CC(C)C)C(=O)N[C@@H]([C@@H](C)O)C1=O [DP-545] ([Sar]LT[NPrGly][NMeF]A[NMeF][NMeL][NMeI][NMeL]D-Piperidide; lactam N-11),36,40,,
CC[C@H](C)[C@@H]1NC(=O)[C@H](Cc2ccccc2)N(C)C(=O)[C@H](C)N(C)C(=O)[C@H]([C@@H](C)O)NC(=O)[C@H](CC(C)C)N(C)C(=O)[C@H](C)N(C)C(=O)C[C@@H](C(=O)N(C)[C@@H](Cc2ccccc2)C(=O)N[C@@H](C)C(=O)N2CCCCC2)NC(=O)[C@H](C(C)C)N(C)C(=O)[C@H](CC(C)C)N(C)C(=O)CN(C)C1=O [DP-492] ([NMeA][NMeL]T[NMeA][NMeF]I[Sar][NMeL][NMeV]D[NMeF]A-Piperidide; lactam N-10),61,20,,
CC[C@H](C)[C@H]1C(=O)N(C)[C@@H](CC(C)C)C(=O)N[C@@H](Cc2ccccc2)C(=O)N[C@@H]([C@@H](C)O)C(=O)N[C@@H](CC(C)C)C(=O)N(C)[C@@H](Cc2ccccc2)C(=O)N(C)[C@@H](C(C)C)C(=O)N[C@H](C(=O)N2CCCCC2)CC(=O)N[C@H](C)C(=O)N[C@@H](C)C(=O)N1C [DP-252] ([dA]A[NMeI][NMeL]FTL[NMeF][NMeV]D-Piperidide; lactam N-10),119,47,,
CC[C@H](C)[C@H]1C(=O)N[C@@H](Cc2ccccc2)C(=O)N(C)[C@@H](CC(C)C)C(=O)N[C@@H](CC(C)C)C(=O)N[C@H](C(=O)N2CCCCC2)CC(=O)N(C)[C@H](C)C(=O)N[C@@H](CC(C)C)C(=O)N(C)[C@@H](C)C(=O)N2CCC[C@H]2C(=O)N[C@@H]([C@@H](C)O)C(=O)N(C)[C@@H](Cc2ccccc2)C(=O)NCC(=O)N1C [DP-224] ([dNMeA]L[NMeA]PT[NMeF]G[NMeI]F[NMeL]LD-Piperidide; lactam N-12),,,18,18
CC[C@H](C)[C@H]1C(=O)N[C@H](C(=O)N2CCCCC2)CC(=O)N[C@H](C(C)C)C(=O)N[C@@H](CC(C)C)C(=O)N(C)[C@@H](Cc2ccccc2)C(=O)N[C@@H]([C@@H](C)O)C(=O)N(C)[C@@H](C)C(=O)N[C@@H](C(C)C)C(=O)N[C@@H](Cc2ccccc2)C(=O)N(C)[C@@H](CC(C)C)C(=O)N[C@@H](CC(C)C)C(=O)NCC(=O)N1C [DP-216] ([dV]L[NMeF]T[NMeA]VF[NMeL]LG[NMeI]D-Piperidide; lactam N-12),43,4.5,,
CC[C@H](C)[C@@H]1NC(=O)[C@H](Cc2ccccc2)N(C)C(=O)[C@H](Cc2ccccc2)NC(=O)[C@H]([C@@H](C)O)NC(=O)[C@H](C(C)C)N(C)C(=O)[C@H](CC(C)C)NC(=O)[C@H](CC(C)C)N(C)C(=O)CCCN(C)C(=O)C[C@@H](C(=O)N2CCCCC2)NC(=O)[C@H](C)NC(=O)[C@H](C)N(C)C1=O [DP-274] ([NMeGABA][NMeL]L[NMeV]TF[NMeF]I[NMeA]AD-Piperidide; lactam N-11),,,183,25
